Experimental data: patent US10782295B2, “Cysteine-reactive ligand discovery in proteomes” (THE SCRIPPS RESEARCH INSTITUTE, priority 2013, dated 2020)

Key:
EEF2 = molecular target: T1, EEF2 (Homo sapiens, UniProt P13639); assay: competitive isoTOP-ABPP, MDA-MB-231 soluble proteome; type: binding; settings: 100 μM LDE, 60 min; peptide STLTDSLVC*K
T1 construct: directly in native proteomes; endogenous in cells; host or cells: MDA-MB-231
Protocol: (§1) Here, we envisioned that isoTOP-ABPP could be advanced to discover and quantify reactions between cysteines in proteomes and any electrophilic compound. In this advanced, ‘competitive’ version of isoTOP-ABPP (FIG. 1a), a proteome is treated with an electrophile (experimental sample) or DMSO (control sample). Both proteomic samples are then labeled with the IA probe and conjugated by CuAAC to light and heavy azide-biotin tags, respectively. The light and heavy samples are then mixed and subjected to our described isoTOP-ABPP protocol for enrichment, identification, and quantification of IA-labeled cysteines^30. Electrophile-modified cysteines are quantified by measuring the MS1 chromatographic peak ratios (R values) for heavy (DMSO-treated) over light (electrophile-treated) samples, with higher R values reflecting greater sensitivity to the electrophile. In this format, competitive isoTOP-ABPP can assay electrophiles against 1000+ cysteines in parallel directly in native proteomes without requiring any chemical modification to the electrophiles themselves.
(§2) Competitive isoTOP-ABPP experiments were performed in quadruplicate using the soluble proteome of the human breast cancer cell line MDA-MB-231 cell line. Proteomes were treated with 100 μM HNE, 15d-PGJ2, or 2-HD, for 60 minutes, followed by the IA-probe (100 μM, 60 min) A total of ˜1400 cysteine reactivities were quantified across the aggregate data set, with at least 900 cysteine reactivities quantified for each LDE (FIG. 2a) more than 750 of which were quantified for all the three electrophiles.
(§3) The MDA-MB-231 cell proteome was treated with varying concentrations of HNE (5, 10, 50, 100 and 500 μM) for 60 min and then the IA-labeling profile of each reaction was quantitatively compared to a DMSO-control sample by isoTOP-ABPP.
(§4) HNE was purchased from EMD biosciences, 15d-PGJ2 was purchased from Cayman Chemicals and 2-HD was purchased from Santa Cruz Biotechnology. Proteome samples were diluted to a 4 mg protein/mL solution in PBS. For each profiling experiment, one aliquot of the proteome sample (0.5 mL) was treated with 100 μM of LDE using 5 μL of a 10 mM stock and the other aliquot was treated with 5 μL of either ethanol (for HNE and 15d-PGJ2) or DMSO (for 2-HD) as control. For the concentration-dependent profiling experiments using HNE, aliquots of the proteomes (0.5 mL each) were treated with 5, 10, 50, 100 and 500 μM of HNE using 5 μL of 0.5, 1.0, 5, 10 and 50 mM of stock solution, respectively. After 60 minutes of treatment at room temperature, both the LDE-treated and control aliquots were passed through a NAP-5 Sephadex column (GE healthcare) to remove any unreacted LDE. The volume of each aliquot was increased to 1 mL with the concentration at 2 mg/mL after this step.
(§5) Each of the control and LDE-treated proteome samples (˜2 mg protein/mL in 1 mL volume) was treated with 100 μM of IA-probe using 10 μL of a 10 mM stock in DMSO. The labeling reactions were incubated at room temperature for 1 hour. Click chemistry (acetylene-azide cycloaddition) was performed by the addition of 100 μM of either the Heavy-TEV-Tag (for the control sample) or Light-TEV-Tag (for the LDE-treated sample) (20 μL of a 5 mM stock), 1 mM TCEP (fresh 50× stock in water), 100 μM ligand (17× stock in DMSO:t-Butanol 1:4) and 1 mM CuSO4 (50× stock in water). Samples were allowed to react at room temperature for 1 hour. After the click chemistry step, the light and heavy-labeled samples were mixed together and centrifuged (5900×g, 4 min, 4° C.) to pellet the precipitated proteins.
(§6) The pellets were washed twice in cold MeOH, after which the pellet was solubilized in PBS containing 1.2% SDS via sonication and heating (5 min, 80° C.). Samples were subjected to streptavidin enrichment of probe-labeled proteins, sequential on-bead trypsin and TEV digestion, and liquid chromatography-mass spectrometry (LC-MS) analysis according to the published isoTOP-ABPP protocol^30. […]

FN3KRP = molecular target: T2, FN3KRP (Homo sapiens, UniProt Q9HA64); assay: as above; type: binding; settings: 100 μM LDE, 60 min; peptide ATGHSGGGC*ISQGR
T2 construct: directly in native proteomes; endogenous in cells; host or cells: MDA-MB-231
T2 sequence (Q9HA64 1-309): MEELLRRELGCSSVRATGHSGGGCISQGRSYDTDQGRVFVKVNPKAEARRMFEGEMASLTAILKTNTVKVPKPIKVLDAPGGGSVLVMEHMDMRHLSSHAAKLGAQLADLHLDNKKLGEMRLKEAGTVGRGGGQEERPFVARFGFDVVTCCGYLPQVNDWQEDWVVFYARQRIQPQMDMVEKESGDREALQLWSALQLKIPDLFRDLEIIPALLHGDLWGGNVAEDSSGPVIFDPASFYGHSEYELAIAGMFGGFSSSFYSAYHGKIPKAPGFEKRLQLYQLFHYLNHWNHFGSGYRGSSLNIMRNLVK
Protocol: as §1, §2, §3, §4, §5, §6

| SMILES | R value (isoTOP-ABPP ratio heavy/light) for IA-labeled cysteine of EEF2 (EEF2) | R value (isoTOP-ABPP ratio heavy/light) for IA-labeled cysteine of FN3KRP (FN3KRP) |
| --- | --- | --- |
| CCCCC/C=C/C=C1/C(=O)C=C[C@@H]1C/C=C\CCCC(=O)O [PGJ2, 15-deoxy-Δ12,14-prostaglandin J2] | 3.31 | 1.62 |
| CCCCCC(O)/C=C/C=O (stereo not drawn) [4-HNE, 4-Hydroxynonenal] | 11.63 | >15 |
| CCCCCCCCCCCCC/C=C/C=O [2-HD, 2-trans-hexadecenal] | 1.06 | 1.03 |
